Read-outs that look alike come from different tables or passages of the source.
Tests used:
[1] = assay type: in vivo, human (children 6–17 years); settings: single oral dose 1.2 mg/kg LBW
[2] = after a 40 mg oral dose; range associated with therapeutic response; cited from earlier work

COc1ccnc(C[S+]([O-])c2nc3ccc(OC(F)F)cc3[nH]2)c1OC (centres unmarked) [PAN, pantoprazole]
PAN plasma AUCtot, Mean (SD) ([1]; CYP2C19 genotype *1*1 (n=30)): 10.04 (6.81) µM per mg/kg TBW | PAN plasma AUCtot, Range ([1]; CYP2C19 genotype *1*1 (n=30)): [2.68–33.75] µM per mg/kg TBW | PAN plasma AUCtot, Mean (SD) ([1]; CYP2C19 genotype *1*2 (n=10)): 18.07 (11.20) µM per mg/kg TBW | PAN plasma AUCtot, Range ([1]; CYP2C19 genotype *1*2 (n=10)): [7.36–41.31] µM per mg/kg TBW | PAN plasma AUCtot, Mean (SD) ([1]; CYP2C19 genotype *1*17 (n=16)): 7.84 (4.52) µM per mg/kg TBW | PAN plasma AUCtot, Range ([1]; CYP2C19 genotype *1*17 (n=16)): [2.26–18.59] µM per mg/kg TBW | PAN plasma AUCtot, Mean (SD) ([1]; CYP2C19 genotype *2*2 (n=1)): 226.59 (–) µM per mg/kg TBW | PAN plasma AUCtot, Mean (SD) ([1]; CYP2C19 genotype *2*17 (n=3)): 10.42 (3.40) µM per mg/kg TBW | PAN plasma AUCtot, Range ([1]; CYP2C19 genotype *2*17 (n=3)): [7.71–14.23] µM per mg/kg TBW | PAN plasma AUCtot, Mean (SD) ([1]; CYP2C19 genotype *17*17 (n=1)): 4.18 (–) µM per mg/kg TBW | typical therapeutic PAN plasma AUCtot [2]: 7 to 17 µM
